Laboratory results published in US20080025931A1, “Cosmetic method for limiting age-related hollowing of the face” (priority 2006, published 2008).

Columns and labels:
[1] = tested on: human adipocytes obtained from the abdominal region; experiment: Stimulation of lipogenesis by measuring the incorporation of 14C-acetate into the lipids; format: cell-based; conditions: for % control (incorporation of 14C-acetate into lipids): 1 h preincubation, 4 h treatment
Procedure: The activity of a Vitreoscilla filiformis cell extract as prepared according to Example 1 on a local adipose development was evaluated. The study was carried out on human adipocytes obtained from the abdominal region. Various parameters representing the adipocyte physiology were analysed: • a) stimulation of lipogenesis by measurement of the incorporation of ^14C-acetate into lipids; • b) stimulation of adipocyte differentiation by measuring the expression of adipocyte differentiation markers: LPL (lipoprotein lipase, involved in the storage of fat; • c) monitoring of the enrichment in lipids by specific staining (AdipoRed™) and imaging; • d) monitoring of the cell size/size distribution by flow cytometry and fluorescent labelling (AdipoRed™). Stimulation of Lipogenesis by Measuring the Incorporation of ^14C-acetate into the Lipids The adipocytes were isolated after an abdominal plastic surgery operation and then incubated in the presence of collagenase and then washed and taken up in test medium. This test medium contained: • product to be tested (Vitreoscilla filiformis extract at various concentrations/theophylline 1 mM/isoproterenol 1 μM), or nothing for the control • bicarbonate 1.87 mg/ml • penicillin/streptomycin 25 IU/ml/25 μg/ml • glutamine 2 mM • MEM without phenol red qs 100% (v/v) supplemented with lipid-free bovine serum albumin at 0.5% (w/v). The products to be tested and the adipocytes were preincubated at 37° C. for 1 h, and then ^14C-acetate was added at 50 μCi/ml. After 4 h of treatment, the lipids were extracted with methanol/chloroform/water and the incorporated radioactivity was counted by liquid scintillation.

[2] = tested on: Normal human pre-adipocytes; experiment: Cell size/size distribution by flow cytometry and AdipoRed fluorescent labelling; format: cell-based; conditions: differentiated cells; 25 ng/ml
Procedure: (§1) Normal human pre-adipocytes were cultured in PGM growth medium at 37° C. and 5% CO2 until confluent. At confluence (D0), the cells were placed in differentiation medium (series 1, differentiated cells) or normal growth medium (series 2, undifferentiated cells), containing or not containing (control) the test products or the reference (TNFα, differentiation inhibitor). The cells were then incubated at 37° C. and 5% CO2 for 4 days.
Monitoring of the Cell Size/Size Distribution by Flow Cytometry and AdipoRed™ Fluorescent Labelling
At the end of the treatments, the cells were rinsed in PBS and then the intracellular lipids were stained with AdipoRed from BioWhittaker.
At the end of the incubation, the cells were rinsed, trypsinized and then analysed by flow cytometry. The differentiation of the pre-adipocytes manifested itself at the morphological level by an increase in the number of intracytoplasmic lipid vesicles and an increase in the size of the cells.
(§2) The results are expressed as % increase relative to the control.

LPL (lipoprotein lipase) = experiment: Stimulation of adipocyte differentiation: expression of LPL marker by RT-Q-PCR in pre-adipocytes; format: cell-based, human; conditions: 25 ng/ml; 4 days; control differentiated cells = 100
Procedure: The activity of a Vitreoscilla filiformis cell extract as prepared according to Example 1 on a local adipose development was evaluated. The study was carried out on human adipocytes obtained from the abdominal region. Various parameters representing the adipocyte physiology were analysed: • a) stimulation of lipogenesis by measurement of the incorporation of ^14C-acetate into lipids; • b) stimulation of adipocyte differentiation by measuring the expression of adipocyte differentiation markers: LPL (lipoprotein lipase, involved in the storage of fat; • c) monitoring of the enrichment in lipids by specific staining (AdipoRed™) and imaging; • d) monitoring of the cell size/size distribution by flow cytometry and fluorescent labelling (AdipoRed™). […]
At the end of the treatment, the supernatants were removed and the cells rinsed in PBS and a volume of 300 μl of Tri-Reagent was added to each well. The expression of the LPL marker was evaluated by RT-Q-PCR on messenger RNAs extracted from the cellular lawns of each treatment. […]
The incorporation of fluorescence into the amplified DNA was measured continuously during the PCR cycles. A relative expression value was evaluated for the LPL marker, expressed in arbitrary units according to the following formula: (½^number of cycles)×10^6
The results are expressed as % relative expression compared with the control.

[3] = tested on: Normal human pre-adipocytes; experiment: Enrichment with lipids by AdipoRed staining and imaging (Spectramax reader); format: cell-based; conditions: differentiated cells, 25 ng/ml
Procedure: as §1
Monitoring of the Enrichment with Lipids by Specific Staining (AdipoRed™) and Imaging
At the end of the treatments, the cells were rinsed in PBS and then the intracellular lipids were stained with AdipoRed from BioWhittaker. The stained cells were observed by optical microscopy, with the Spectramax reader.
as §2

C/C=C/C/C=C/CCC(=O)[C@H]1O[C@H]1C(N)=O [Cerulenin]
% control (incorporation of 14C-acetate into lipids) ([1]; 20 μM): 34 % control
incorporation of acetate into lipids (in words) ([1]; tested at 0.02 mM): significantly inhibited

CC(C)NCC(O)c1ccc(O)c(O)c1 (stereo not shown) [Isoproterenol]
% control (incorporation of 14C-acetate into lipids) ([1]; 1 μM): 3400 % control

TNFα
% control (AdipoRed measurement, flow cytometry) [2]: 80 % control
LPL, % relative expression compared with the control (LPL (lipoprotein lipase)): 111%
lipid level (in words) [3]: reduced the lipid level
% control (intracellular lipids, AdipoRed, Spectramax) ([3]; 4 days): 83 % control
